In PubChem BioAssay (NCI):
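In this assay, cells in 96-well plates receive the compound at five concentrations for 48 hours. Endpoints are linearly interpolated between the surrounding concentrations. The concentration for 50% growth inhibition is given as GI50. TGI: total growth inhibition.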

Key:
Test in all cases: NCI tumour cell line growth inhibition, 48 h
LXFL 529 NSCLC = tested on: LXFL 529 NSCLC
DLD-1 colon = tested on: DLD-1 colon
M19-MEL melanoma = tested on: M19-MEL melanoma
SNB-78 CNS = tested on: SNB-78 CNS
HOP-18 NSCLC = tested on: HOP-18 NSCLC
XF 498 CNS = tested on: XF 498 CNS
RXF-631 renal = tested on: RXF-631 renal
DMS 114 small cell lung = tested on: DMS 114 small cell lung
MDA-N = tested on: MDA-N
P388/ADR leukemia = tested on: P388/ADR leukemia
P388 leukemia = tested on: P388 leukemia
SN12K1 renal = tested on: SN12K1 renal

Row | SMILES | TGI (LXFL 529 NSCLC) [µM] | TGI (DLD-1 colon) [µM] | TGI (M19-MEL melanoma) [µM] | TGI (SNB-78 CNS) [µM] | TGI (HOP-18 NSCLC) [µM] | TGI (XF 498 CNS) [µM] | TGI (DMS 114 small cell lung) [µM] | TGI (MDA-N) [µM] | other results
1 | OC1CC(O)O[C@H](c2ccccc2)C1 (stereo partly drawn) | > 100 | > 100 | > 100 | > 100 | > 100 |  |  |  | 
2 | CC(=O)Oc1ccc2c(=O)c(C(C)=O)coc2c1 | > 100 |  | > 100 | > 100 |  | > 100 |  |  | 
3 | O=C(c1ccccc1)n1cc(/C=C/[N+](=O)[O-])c2ccccc21 | 35.1 | 33.5 | 38.9 | 79.9 | > 100 | 78.5 | 38 |  | TGI (RXF-631 renal): 48.2 µM
4 | O=C(O)CN1C(=O)OC(c2ccccc2)C1=O (stereo not drawn) |  |  |  |  |  |  |  | > 100 | 
5 | CCN(N=O)C1C2(CCCC2)NC(=O)C12CCCC2 (stereo not drawn) | > 100 | > 100 | > 100 | > 100 | > 100 | > 100 | > 100 |  | TGI (RXF-631 renal): > 100 µM
6 | O=C(CCN1CCCCC1)c1csc2ccccc12 |  |  |  |  |  |  |  | > 100 | 
7 | COc1ccc(C2=C(c3ccccc3)C(=O)N3CCCC3C2)cc1 (stereo not drawn) |  |  |  |  |  |  |  | > 100 | GI50 (MDA-N): 0.441 µM
8 | COc1cc(-c2oc3c(OC)c(O)c(OC)c(O)c3c(=O)c2OC)cc(OC)c1OC |  |  |  |  |  |  |  | > 100 | 
9 | CCCCCc1cc(/C=C2/N=C(c3ccc[nH]3)C=C2OC)[nH]c1C |  |  |  |  |  |  |  | 0.155 | 
10 | C#CN1C(=O)c2c(c(-c3ccccc3)c(-c3ccc(Oc4ccc(-c5c(-c6ccccc6)c6c(c(-c7ccccc7)c5-c5ccccc5)C(=O)N(C#C)C6=O)cc4)cc3)c(-c3ccccc3)c2-c2ccccc2)C1=O |  | > 100 | > 100 |  |  | 72.8 | > 100 |  | 
11 | COc1ccc(OC(=O)N2C/C(=C\c3ccccc3)C(=O)/C(=C/c3ccccc3)C2)cc1 | 6.92 | 5.29 | 2.9 | 27.3 | 49.5 |  |  | 3.47 | 
12 | O=C(O)C1=Cc2cccc3cccc(c23)C1=O | > 100 | > 100 | > 100 |  | > 100 |  | > 100 |  | 
13 | CNC(=O)/C=C/C1=CN2C(=O)c3ccc(C)c(O)c3NC(OC)C2C1 (stereo not drawn) |  |  |  |  |  |  |  | < 0.0211 | 
14 | O=C1CCc2cc(Br)ccc2O1 |  |  |  |  |  |  |  | > 100 | 
15 | C[C@@H](NC1CCCC[C@@H]1O)c1ccccc1 (stereo partly drawn) | > 100 | > 100 | > 100 | > 100 | > 100 | > 100 |  |  | 
16 | CC(=O)OC1C(O)C(C)OC(OC2C(OC(=O)C3CCC4C(C3)OC3(CC(OC(=O)/C=C/c5ccccc5)C(C)CO3)C43CO3)OC(C)C(O)C2OC(C)=O)C1O (stereo not drawn) |  | > 1.5 | 0.0665 |  | 0.413 | 0.0896 | 0.0727 | 0.0182 | TGI (P388/ADR leukemia): > 2.5 µM; TGI (P388 leukemia): 0.279 µM; TGI (SN12K1 renal): 0.0583 µM
17 | CC(=O)OCc1nnn2c1C(OC(C)=O)CC2 (stereo not drawn) | > 100 | > 100 | > 100 | > 100 |  | > 100 | > 100 |  | TGI (RXF-631 renal): > 100 µM
18 | CCOC(=O)C#Cc1cccc(C#CC(=O)OCC)c1 |  |  |  |  |  |  |  | 6.44 | 
19 | CC(C)(C)N1CC1CNC(=O)C(=O)NCC1CN1C(C)(C)C (stereo not drawn) |  |  | 2.62 |  |  | 1.31 | 2.49 | > 92.9 | 
20 | CC(=O)OC(C(=O)[O][Ge]([CH3])([CH3])[CH3])c1ccccc1 (stereo not drawn) | > 100 | > 100 | > 100 | > 100 | > 100 |  | > 100 |  | GI50 (LXFL 529 NSCLC): > 100 µM; GI50 (DLD-1 colon): > 100 µM; GI50 (DMS 114 small cell lung): > 100 µM; GI50 (M19-MEL melanoma): > 100 µM; GI50 (SNB-78 CNS): > 100 µM; GI50 (HOP-18 NSCLC): > 100 µM
21 | C=C(C)COc1ccc2c(c1)CCC1C2CCC2(C)C(=O)/C(=N/O)CC12 (stereo not drawn) |  |  |  |  |  |  |  | 14.7 | 
22 | CCCCCCCCCCCCC(O)C1CCC(C(O)CCCCC(O)CCCCCC2CC(CC(C)=O)C(=O)O2)O1 (stereo not drawn) | 16.3 | 21 | 12.5 | > 41 | 23.3 | 8.44 | 7.78 | 4.81 | TGI (RXF-631 renal): 16.7 µM
23 | CC[O-].CC[O-].O=C1C=C([O-])C(=O)c2ccccc21.O=C1C=C([O-])C(=O)c2ccccc21.[Ti+4] | > 100 | > 100 | 3.81 |  | > 100 | > 100 |  |  | GI50 (LXFL 529 NSCLC): 83.3 µM; GI50 (DLD-1 colon): > 100 µM; GI50 (M19-MEL melanoma): 1.61 µM; GI50 (XF 498 CNS): > 100 µM; GI50 (HOP-18 NSCLC): > 100 µM
24 | CCOC(=O)C(C(=O)OCC)=C1C=C(c2ccccc2)c2ccccc21 | > 100 | > 100 | > 100 | > 100 |  | > 100 | > 100 |  | 
